Assay results published in patent publication US11612603B1, “3-triazolyl methyl-1,3,5-triazine-2,4-dione compounds and preparation method and application thereof” (priority 2022, dated 2023).

What was measured:
A549 cells = test: In vitro cytotoxicity, MTT method, A549 cells; assay type: cell-based; details: for A549 cell viability: 24 h, MTT
Method: (§1) HepG2, HEK293 and A549 cells were taken in logarithmic growth phase, digested with trypsin to prepare cell suspensions. The cell density was adjusted to 5×10^4 cells/mL, inoculating 180 μL per well in a sterile 96-well cell culture plate, incubating for 24 h at 37° C. in a 5% CO2 incubator. After the cells were attached to the bottom of the well plate, 20 μL of the drug solutions in a concentration gradient were added to each well, and 6 duplicate wells were set up in parallel, including blank group (no cells, no compounds) and control groups (no compounds). After incubating for 24 h at 37° C. in a 5% CO2 constant temperature incubator, 20 μL of 5 g/L MTT solution was added to each well for 4 h. After the incubation, the culture medium in the wells was gently aspirated, 100 μL of DMSO was added to each well, and the cells were shaken at low speed for 10 min on a shaker to fully dissolve the crystals to calculate cell viability. Cell viability (%)=(Sample Group GD Value−Blank Group GD Value)/(Control Group GD Value−Blank Group GD Value)

HepG2 cells = test: In vitro cytotoxicity, MTT method, HepG2 cells; assay type: cell-based; details: for HEPG2 cell viability: 24 h, MTT
Method: as §1

SARS-CoV-2 3CL^pro = SARS-CoV-2 3CL^pro (Severe acute respiratory syndrome coronavirus 2 (2019-nCoV) (SARS-CoV-2), UniProt P0DTD1); test: biochemical
HEK293 cells = test: In vitro cytotoxicity, MTT method, HEK293 cells; assay type: cell-based; details: for HEK293 cell viability: 24 h, MTT
Method: as §1

For `Cn1cc2cc(/N=c3\[nH]c(=O)n(Cc4cnn[nH]4)c(=O)n3Cc3ccc(C(F)(F)F)cc3)c(Cl)cc2n1` [Compound 12], which A549 cell viability (A549 cells; 1.5625 nM) is on record?
Its A549 cell viability is 98.52%.

And the A549 cell viability (A549 cells; 3.125 nM)?
Its A549 cell viability is 97.34%.

What about the A549 cell viability (A549 cells; 6.25 nM) of the same compound?
Its A549 cell viability is 96.55%.

And the A549 cell viability (A549 cells; 12.5 nM)?
The A549 cell viability was 97.32%.

What about the A549 cell viability (A549 cells; 25 nM) of the same compound?
The A549 cell viability was 96.21%.

And the A549 cell viability (A549 cells; 50 nM)?
The A549 cell viability was 98.03%.

And the A549 cell viability (A549 cells; 100 nM)?
Its A549 cell viability is 96.61%.

And the A549 cell viability (A549 cells; 200 nM)?
Its A549 cell viability is 94.13%.

What about the A549 cell viability (A549 cells; 400 nM) of the same compound?
The A549 cell viability was 90.13%.

What about the “A549 cell viability compared with positive drugs” value (A549 cells; at 12.5 nM and lower) of the same compound?
The value was “higher than that of PF-07321332 and S-217622”.

What about the “toxicity on A549 cells compared with positive drugs” value (A549 cells; at 400 nM and 200 nM) of the same compound?
The value was “slightly higher than that of PF-07321332 and S-217622”.

What about the HEPG2 cell viability (HepG2 cells; 1.5625 nM) of the same compound?
The HEPG2 cell viability was 95.73%.

And the HEPG2 cell viability (HepG2 cells; 3.125 nM)?
Its HEPG2 cell viability is 95.07%.

And the HEPG2 cell viability (HepG2 cells; 6.25 nM)?
Its HEPG2 cell viability is 93.31%.

And the HEPG2 cell viability (HepG2 cells; 12.5 nM)?
Its HEPG2 cell viability is 90.22%.

And the HEPG2 cell viability (HepG2 cells; 25 nM)?
Its HEPG2 cell viability is 88.36%.

And the HEPG2 cell viability (HepG2 cells; 50 nM)?
The HEPG2 cell viability was 86.83%.

And the HEPG2 cell viability (HepG2 cells; 100 nM)?
Its HEPG2 cell viability is 86.63%.

What about the HEPG2 cell viability (HepG2 cells; 200 nM) of the same compound?
Its HEPG2 cell viability is 81.38%.

And the HEPG2 cell viability (HepG2 cells; 400 nM)?
Its HEPG2 cell viability is 76.67%.

What about the “HepG2 cell viability compared with positive drugs” value (HepG2 cells; at 12.5 nM and lower) of the same compound?
Its value is “higher than that of PF-07321332 and S-217622”.

And the “toxicity on HepG2 cells compared with positive drugs” value (HepG2 cells; at 400 nM and 200 nM)?
Its value is “slightly higher than that of PF-07321332 and S-217622”.

And the IC50 (SARS-CoV-2 3CL^pro; 3CL^pro FRET)?
Its IC50 is 178 nM.

What about the inhibition at 0.0001 µM (SARS-CoV-2 3CL^pro; Conc 0.1 nM, read-out: Inhibitory activity on 3CL^pro (inhibition rate)) of the same compound?
Its inhibition at 0.0001 µM is 0.76%.

What about the inhibition at 0.001 µM (SARS-CoV-2 3CL^pro; Conc 1 nM, read-out: Inhibitory activity on 3CL^pro (inhibition rate)) of the same compound?
Its inhibition at 0.001 µM is 2.33%.

And the inhibition at 0.005 µM (SARS-CoV-2 3CL^pro; Conc 5 nM, read-out: Inhibitory activity on 3CL^pro (inhibition rate))?
Its inhibition at 0.005 µM is 5.73%.

What about the inhibition at 0.01 µM (SARS-CoV-2 3CL^pro; Conc 10 nM, read-out: Inhibitory activity on 3CL^pro (inhibition rate)) of the same compound?
The inhibition at 0.01 µM was 8.52%.

What about the inhibition at 0.02 µM (SARS-CoV-2 3CL^pro; Conc 20 nM, read-out: Inhibitory activity on 3CL^pro (inhibition rate)) of the same compound?
Its inhibition at 0.02 µM is 12.1%.

What about the inhibition at 0.03 µM (SARS-CoV-2 3CL^pro; Conc 30 nM, read-out: Inhibitory activity on 3CL^pro (inhibition rate)) of the same compound?
Its inhibition at 0.03 µM is 16.5%.

And the inhibition at 0.05 µM (SARS-CoV-2 3CL^pro; Conc 50 nM, read-out: Inhibitory activity on 3CL^pro (inhibition rate))?
The inhibition at 0.05 µM was 21.2%.

And the inhibition at 0.1 µM (SARS-CoV-2 3CL^pro; Conc 100 nM, read-out: Inhibitory activity on 3CL^pro (inhibition rate))?
Its inhibition at 0.1 µM is 37.2%.

And the inhibition at 0.5 µM (SARS-CoV-2 3CL^pro; Conc 500 nM, read-out: Inhibitory activity on 3CL^pro (inhibition rate))?
The inhibition at 0.5 µM was 68.7%.

What about the inhibition at 1 µM (SARS-CoV-2 3CL^pro; Conc 1000 nM, read-out: Inhibitory activity on 3CL^pro (inhibition rate)) of the same compound?
Its inhibition at 1 µM is 88.6%.

What about the HEK293 cell viability (HEK293 cells; 1.5625 nM) of the same compound?
The HEK293 cell viability was 93.67%.

What about the HEK293 cell viability (HEK293 cells; 3.125 nM) of the same compound?
Its HEK293 cell viability is 93.03%.

And the HEK293 cell viability (HEK293 cells; 6.25 nM)?
Its HEK293 cell viability is 92.31%.

What about the HEK293 cell viability (HEK293 cells; 12.5 nM) of the same compound?
Its HEK293 cell viability is 90.69%.

What about the HEK293 cell viability (HEK293 cells; 25 nM) of the same compound?
Its HEK293 cell viability is 84.22%.

What about the HEK293 cell viability (HEK293 cells; 50 nM) of the same compound?
The HEK293 cell viability was 82.91%.

And the HEK293 cell viability (HEK293 cells; 100 nM)?
Its HEK293 cell viability is 81.24%.

And the HEK293 cell viability (HEK293 cells; 200 nM)?
Its HEK293 cell viability is 80.57%.

And the HEK293 cell viability (HEK293 cells; 400 nM)?
Its HEK293 cell viability is 78.23%.

What about the “HEK293 cell viability compared with positive drugs” value (HEK293 cells; at 12.5 nM and lower) of the same compound?
The value was “higher than that of PF-07321332 and S-217622”.

And the “toxicity on HEK293 cells compared with positive drugs” value (HEK293 cells; at 400 nM and 200 nM)?
Its value is “slightly higher than that of PF-07321332 and S-217622”.
